Data: US20250195521A1 (Revolution Medicines, Inc., priority 2020, published 2025)
Like-named read-outs stand apart in the source and are kept apart here.

Tests used:
[1] = tested on: Capan-1 cells (K-Ras G12V); assay: CellTiter-Glo cell viability, Capan-1; assay type: cell-based, human; conditions: Homo sapiens, CAPAN-1, 120 h, read-out: Capan-1 Cell Viability IC50
Method in brief: (§1)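 Viability read by luminescence on day 5 after direct compound addition to cells, following ~30 min room-temperature equilibration. Values expressed as percent of mean DMSO signal, curves fitted with a four-parameter logistic model.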

NRAS WT = NRAS WT (Homo sapiens (Human), UniProt P01111+P62937); assay: Ras-Raf disruption/FRET/MOA assay (BRAF RBD, Cyclophilin A); assay type: biochemical
Sequence of NRAS WT (P01111 whole entry): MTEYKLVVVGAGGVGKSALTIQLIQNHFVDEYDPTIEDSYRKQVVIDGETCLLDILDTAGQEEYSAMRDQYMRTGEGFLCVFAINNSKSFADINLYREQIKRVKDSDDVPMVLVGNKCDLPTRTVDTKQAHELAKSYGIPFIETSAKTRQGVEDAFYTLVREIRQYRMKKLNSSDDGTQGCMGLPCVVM
Sequence of NRAS WT (P62937 whole entry): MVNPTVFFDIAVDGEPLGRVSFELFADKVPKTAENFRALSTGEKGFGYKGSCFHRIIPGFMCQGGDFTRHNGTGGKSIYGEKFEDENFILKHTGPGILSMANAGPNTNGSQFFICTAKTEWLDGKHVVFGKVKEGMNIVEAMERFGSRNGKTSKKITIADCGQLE
Method in brief: (§2)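 Measured: compound-facilitated Cyclophilin A:Ras complex blocking RAF RBD binding. Conditions: 12.5 nM Ras-GMPPNP, 50 nM BRAF RBD, 25 μM CypA, 3 h plus 1.5 h detection. Output: IC50 from TR-FRET ratio.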

KRAS G12D = KRAS G12D (Homo sapiens (Human), UniProt P01116+P62937, G12D); assay: as above; assay type: biochemical; conditions: read-out: KRAS G12D FRET IC50
Sequence of KRAS G12D (P01116 other isoform, or with tags, fused parts or gaps G12D): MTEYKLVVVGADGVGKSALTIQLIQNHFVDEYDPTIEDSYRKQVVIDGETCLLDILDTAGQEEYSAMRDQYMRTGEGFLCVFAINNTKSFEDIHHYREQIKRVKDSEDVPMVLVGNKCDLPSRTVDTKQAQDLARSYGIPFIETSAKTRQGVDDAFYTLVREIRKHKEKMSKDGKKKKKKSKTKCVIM
Sequence of KRAS G12D (P62937 whole entry): as the sequence (P62937 whole entry) above
Method in brief: (§3)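 TR-FRET readout: anti-His Eu-W1024 (10 nM) and anti-GST allophycocyanin (50 nM) added after 3 h, 25° C compound incubation, then 1.5 h more. Decrease in FRET ratio versus DMSO wells marks Ras:RAF disruption; IC50 reported.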

KRAS G13D = KRAS G13D (Homo sapiens (Human), UniProt P01116+P62937, G13D); assay: as above; assay type: biochemical; conditions: read-out: KRAS G13D FRET data IC50
Sequence of KRAS G13D (P01116 other isoform, or with tags, fused parts or gaps G13D): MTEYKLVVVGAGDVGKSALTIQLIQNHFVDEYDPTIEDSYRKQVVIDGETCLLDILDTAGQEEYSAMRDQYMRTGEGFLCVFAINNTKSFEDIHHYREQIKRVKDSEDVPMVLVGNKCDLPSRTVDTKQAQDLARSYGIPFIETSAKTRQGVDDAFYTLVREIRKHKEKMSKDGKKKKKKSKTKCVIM
Sequence of KRAS G13D (P62937 whole entry): as the sequence (P62937 whole entry) above
Method in brief: as §3

NRAS G12C = NRAS G12C (Homo sapiens (Human), UniProt P01111+P62937, G12C); assay: as above; assay type: biochemical; conditions: read-out: NRAS G12C FRET data IC50
Sequence of NRAS G12C (P01111 whole entry G12C): as the sequence (P01111 whole entry) above, with G12C counted along it
Sequence of NRAS G12C (P62937 whole entry): as the sequence (P62937 whole entry) above
Method in brief: as §2

NRAS Q61R = NRAS Q61R (Homo sapiens (Human), UniProt P01111+P62937, Q61R); assay: as above; assay type: biochemical
Sequence of NRAS Q61R (P01111 whole entry Q61R): as the sequence (P01111 whole entry) above, with Q61R counted along it
Sequence of NRAS Q61R (P62937 whole entry): as the sequence (P62937 whole entry) above
Method in brief: as §2

KRAS Q61H = KRAS Q61H (Homo sapiens (Human), UniProt P01116+P62937, Q61H); assay: as above; assay type: biochemical
Sequence of KRAS Q61H (P01116 other isoform, or with tags, fused parts or gaps Q61H): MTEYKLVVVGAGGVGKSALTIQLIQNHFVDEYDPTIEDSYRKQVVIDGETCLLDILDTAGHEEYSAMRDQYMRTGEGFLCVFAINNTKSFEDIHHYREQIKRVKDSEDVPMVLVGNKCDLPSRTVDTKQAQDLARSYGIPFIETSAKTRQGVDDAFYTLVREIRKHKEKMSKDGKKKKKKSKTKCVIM
Sequence of KRAS Q61H (P62937 whole entry): as the sequence (P62937 whole entry) above
Method in brief: as §3

KRAS G13C = KRAS G13C (Homo sapiens (Human), UniProt P01116+P62937, G13C); assay: as above; assay type: biochemical; conditions: read-out: KRAS G13C FRET IC50
Sequence of KRAS G13C (P01116 other isoform, or with tags, fused parts or gaps G13C): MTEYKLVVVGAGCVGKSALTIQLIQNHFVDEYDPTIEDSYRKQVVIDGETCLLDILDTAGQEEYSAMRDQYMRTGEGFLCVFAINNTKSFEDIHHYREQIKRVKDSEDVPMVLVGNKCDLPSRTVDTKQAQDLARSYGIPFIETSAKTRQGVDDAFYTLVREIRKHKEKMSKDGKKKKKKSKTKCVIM
Sequence of KRAS G13C (P62937 whole entry): as the sequence (P62937 whole entry) above
Method in brief: as §3

KRAS G12S = KRAS G12S (Homo sapiens (Human), UniProt P01116+P62937, G12S); assay: as above; assay type: biochemical; conditions: read-out: KRAS G12S FRET IC50
Sequence of KRAS G12S (P01116 other isoform, or with tags, fused parts or gaps G12S): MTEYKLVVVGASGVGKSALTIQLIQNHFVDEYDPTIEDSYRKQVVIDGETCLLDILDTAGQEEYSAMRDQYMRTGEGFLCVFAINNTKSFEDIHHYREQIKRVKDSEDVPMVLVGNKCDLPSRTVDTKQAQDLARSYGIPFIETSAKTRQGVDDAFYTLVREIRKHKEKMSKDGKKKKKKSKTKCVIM
Sequence of KRAS G12S (P62937 whole entry): as the sequence (P62937 whole entry) above
Method in brief: as §3

KRAS G12V = KRAS G12V (Homo sapiens (Human), UniProt P01116+P62937, G12V); assay: as above; assay type: biochemical; conditions: read-out: KRAS G12V FRET IC50
Sequence of KRAS G12V (P01116 other isoform, or with tags, fused parts or gaps G12V): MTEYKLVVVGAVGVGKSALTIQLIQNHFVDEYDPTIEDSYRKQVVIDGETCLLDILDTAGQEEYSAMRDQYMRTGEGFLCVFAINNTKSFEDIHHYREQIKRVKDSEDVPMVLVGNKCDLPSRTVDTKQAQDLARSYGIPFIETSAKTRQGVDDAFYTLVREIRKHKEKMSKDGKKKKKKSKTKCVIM
Sequence of KRAS G12V (P62937 whole entry): as the sequence (P62937 whole entry) above
Method in brief: as §3

KRAS WT = KRAS WT (Homo sapiens (Human), UniProt P01116+P62937); assay: as above; assay type: biochemical; conditions: read-out: KRAS WT FRET data IC50
Sequence of KRAS WT (P01116 other isoform, or with tags, fused parts or gaps): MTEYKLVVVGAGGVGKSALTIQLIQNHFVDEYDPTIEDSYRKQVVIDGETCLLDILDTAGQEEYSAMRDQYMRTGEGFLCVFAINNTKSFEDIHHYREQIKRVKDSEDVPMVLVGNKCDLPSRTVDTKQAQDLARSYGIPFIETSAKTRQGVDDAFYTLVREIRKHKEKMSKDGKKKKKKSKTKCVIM
Sequence of KRAS WT (P62937 whole entry): as the sequence (P62937 whole entry) above
Method in brief: as §3

KRAS G12C = KRAS G12C (Homo sapiens (Human), UniProt P01116+P62937, G12C); assay: as above; assay type: biochemical; conditions: read-out: KRAS G12C FRET IC50
Sequence of KRAS G12C (P01116-2 other isoform, or with tags, fused parts or gaps G12C): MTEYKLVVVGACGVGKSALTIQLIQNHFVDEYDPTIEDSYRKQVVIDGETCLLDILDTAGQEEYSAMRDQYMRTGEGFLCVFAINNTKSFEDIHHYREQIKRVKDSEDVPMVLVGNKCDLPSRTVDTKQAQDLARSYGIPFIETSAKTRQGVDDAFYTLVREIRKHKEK
Sequence of KRAS G12C (P62937 whole entry): as the sequence (P62937 whole entry) above
Method in brief: as §3

[2] = tested on: NCI-H358 cells (K-Ras G12C); assay: CellTiter-Glo cell viability, NCI-H358; assay type: cell-based, human; conditions: Homo sapiens, NCI-H358, 120 h, read-out: H358 Cell Viability IC50
Method in brief: as §1

[3] = tested on: K-Ras G12C (NCI-H358 cells); assay: Potency assay: pERK in NCI-H358 cells; assay type: cell-based, human; conditions: Homo sapiens, read-out: pERK EC50 (H358 KRAS G12C)
Method in brief: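 Cells plated the day before were exposed for 4 h at 37° C, 5% CO2 to a 10-point, 3-fold DMSO dilution series (10 mM top stock), in duplicate. Phospho-ERK was read by AlphaLISA SureFire Ultra or by In-Cell Western with DRAQ5 DNA stain, and IC50 came from a 4-parameter sigmoidal fit.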

SMILES	IC50 ([1]; K-Ras G12V, 5-day treatment)	IC50 (NRAS WT)	IC50 (KRAS G12D)	IC50 (KRAS G13D)	IC50 (NRAS G12C)	IC50 (NRAS Q61R)	IC50 (KRAS Q61H)	IC50 (KRAS G13C)	IC50 (KRAS G12S)	IC50 (KRAS G12V)	IC50 (KRAS WT)	IC50 (KRAS G12C)	IC50 ([2]; K-Ras G12C, 5-day treatment)	EC50 ([3]; NCI-H358 cells, 4 hours)	IC50 [1]	EC50 ([3]; NCI-H358, 4 h)	IC50 [2]
CCn1c(-c2cccnc2[C@H](C)OC)c2c3cc(ccc31)-c1csc(n1)C[C@H](NC(=O)[C@H](C(C)C)N(C)C(=O)N(C)C1COC1)C(=O)N1CCC[C@H](N1)C(=O)OCC(C)(C)C2 [Compound A334]	10 to 100 nM	100 to 1000 nM	100 to 1000 nM	100 to 1000 nM	10 to 100 nM	100 to 1000 nM	10 to 100 nM	100 to 1000 nM	100 to 1000 nM	100 to 1000 nM	100 to 1000 nM	10 to 100 nM	10 to 100 nM				
CCn1c(-c2cccnc2[C@H](C)OC)c2c3cc(ccc31)-c1csc(n1)C[C@H](NC(=O)[C@H](C(C)C)N(C)C(=O)N1CC(S(C)(=O)=O)C1)C(=O)N1CCC[C@H](N1)C(=O)OCC(C)(C)C2 [Compound A383]	10 to 100 nM	100 to 1000 nM	100 to 1000 nM	100 to 1000 nM	10 to 100 nM	100 to 1000 nM	10 to 100 nM	100 to 1000 nM	100 to 1000 nM	100 to 1000 nM	100 to 1000 nM	10 to 100 nM	10 to 100 nM	< 5000 nM			
CCn1c(-c2cccnc2[C@H](C)OC)c2c3cc(ccc31)-c1csc(n1)C[C@H](NC(=O)[C@H](C(C)C)N(C)C(=O)N1CC[C@H](O)C1)C(=O)N1CCC[C@H](N1)C(=O)OCC(C)(C)C2 [Compound A401]	10 to 100 nM	100 to 1000 nM	100 to 1000 nM	100 to 1000 nM	10 to 100 nM	100 to 1000 nM	10 to 100 nM	100 to 1000 nM	100 to 1000 nM	100 to 1000 nM	100 to 1000 nM	10 to 100 nM	10 to 100 nM				
CCn1c(-c2cccnc2[C@H](C)OC)c2c3cc(ccc31)-c1cc(O)cc(c1)C[C@H](NC(=O)[C@H](C(C)C)N(C)C(=O)[C@H]1CCC(=O)O1)C(=O)N1CCC[C@H](N1)C(=O)OCC(C)(C)C2 [Compound A405]	1000 to 10000 nM	10 to 100 nM	100 to 1000 nM	10 to 100 nM	10 to 100 nM	100 to 1000 nM	10 to 100 nM	10 to 100 nM	10 to 100 nM	10 to 100 nM	10 to 100 nM	10 to 100 nM	1000 to 10000 nM				
CCn1c(-c2cccnc2[C@H](C)OC)c2c3cc(ccc31)-c1csc(n1)C[C@H](NC(=O)[C@H](C(C)C)N(C)C(=O)N1C[C@@H]3OCCN(C)[C@H]3C1)C(=O)N1CCC[C@H](N1)C(=O)OCC(C)(C)C2 [Compound A445]	10 to 100 nM	100 to 1000 nM	1000 to 10000 nM	100 to 1000 nM	100 to 1000 nM	100 to 1000 nM	100 to 1000 nM	100 to 1000 nM	100 to 1000 nM	100 to 1000 nM	100 to 1000 nM	100 to 1000 nM	10 to 100 nM	< 5000 nM			
CCn1c(-c2cccnc2[C@H](C)OC)c2c3cc(ccc31)-c1csc(n1)C[C@H](NC(=O)[C@H](C(C)C)N(C)C(=O)N1CC3(CC(N(C)C(C)C)C3)C1)C(=O)N1CCC[C@H](N1)C(=O)OCC(C)(C)C2 [Compound A485]	10 to 100 nM	100 to 1000 nM	100 to 1000 nM	100 to 1000 nM	100 to 1000 nM	100 to 1000 nM	10 to 100 nM	100 to 1000 nM	100 to 1000 nM	100 to 1000 nM	100 to 1000 nM	100 to 1000 nM	10 to 100 nM				
CCn1c(-c2cccnc2[C@H](C)OC)c2c3cc(ccc31)-c1csc(n1)C[C@H](NC(=O)[C@H](C(C)C)N(C)C(=O)N1CCCC[C@H](N(C)C)C1)C(=O)N1CCC[C@H](N1)C(=O)OCC(C)(C)C2 [Compound A491]	10 to 100 nM	10 to 100 nM	100 to 1000 nM	100 to 1000 nM	10 to 100 nM	100 to 1000 nM	10 to 100 nM	100 to 1000 nM	10 to 100 nM	100 to 1000 nM	10 to 100 nM	10 to 100 nM	10 to 100 nM	< 5000 nM			
CCn1c(-c2cccnc2[C@H](C)OC)c2c3cc(ccc31)-c1csc(n1)C[C@H](NC(=O)[C@H](C(C)C)N(C)C(=O)N1CC3(CC(NCCOC)C3)C1)C(=O)N1CCC[C@H](N1)C(=O)OCC(C)(C)C2 [Compound A512]	10 to 100 nM	100 to 1000 nM	1000 to 10000 nM	100 to 1000 nM	100 to 1000 nM	100 to 1000 nM	100 to 1000 nM	100 to 1000 nM	100 to 1000 nM	100 to 1000 nM	100 to 1000 nM	100 to 1000 nM	10 to 100 nM				
CCn1c(-c2cccnc2[C@H](C)OC)c2c3cc(ccc31)-c1csc(n1)C[C@H](NC(=O)[C@H](C(C)C)N(C)C(=O)N1CC(S(=O)(=O)N(C)C)C1)C(=O)N1CCC[C@H](N1)C(=O)OCC(C)(C)C2 [Compound A551]		100 to 1000 nM	100 to 1000 nM	100 to 1000 nM	10 to 100 nM	100 to 1000 nM	10 to 100 nM	100 to 1000 nM	100 to 1000 nM	100 to 1000 nM	100 to 1000 nM	10 to 100 nM			10 to 100 nM	< 5000 nM	
CCn1c(-c2cccnc2[C@H](C)OC)c2c3cc(ccc31)-c1csc(n1)C[C@H](NC(=O)[C@H](C(C)C)N(C)C(=O)N(C)CCc1ccncc1)C(=O)N1CCC[C@H](N1)C(=O)OCC(C)(C)C2 [Compound A557]	100 to 1000 nM	100 to 1000 nM	100 to 1000 nM	100 to 1000 nM	10 to 100 nM	100 to 1000 nM	10 to 100 nM	100 to 1000 nM	100 to 1000 nM	100 to 1000 nM	100 to 1000 nM	10 to 100 nM	10 to 100 nM				
CCn1c(-c2cccnc2[C@H](C)OC)c2c3cc(ccc31)-c1csc(n1)C[C@H](NC(=O)[C@H](C(C)C)N(C)C(=O)N1CCC[C@H](N(C)C)C1)C(=O)N1CCC[C@H](N1)C(=O)OCC(C)(C)C2 [Compound A569]		10 to 100 nM	100 to 1000 nM	100 to 1000 nM	10 to 100 nM	100 to 1000 nM	10 to 100 nM	100 to 1000 nM	100 to 1000 nM	100 to 1000 nM	100 to 1000 nM	10 to 100 nM			10 to 100 nM		10 to 100 nM
CCn1c(-c2cccnc2[C@H](C)OC)c2c3cc(ccc31)-c1csc(n1)C[C@H](NC(=O)[C@H](C(C)C)N(C)C(=O)N1CC(CN(C)C)C1)C(=O)N1CCC[C@H](N1)C(=O)OCC(C)(C)C2 [Compound A576]	10 to 100 nM	100 to 1000 nM	100 to 1000 nM	100 to 1000 nM	10 to 100 nM	100 to 1000 nM	100 to 1000 nM	100 to 1000 nM	100 to 1000 nM	100 to 1000 nM	100 to 1000 nM	10 to 100 nM	10 to 100 nM				
CCn1c(-c2cccnc2[C@H](C)OC)c2c3cc(ccc31)-c1csc(n1)C[C@H](NC(=O)[C@H](C(C)C)N(C)C(=O)N1CCO[C@@H](CN(C)C)C1)C(=O)N1CCC[C@H](N1)C(=O)OCC(C)(C)C2 [Compound A591]	10 to 100 nM	10 to 100 nM	100 to 1000 nM	100 to 1000 nM	10 to 100 nM	100 to 1000 nM	10 to 100 nM	100 to 1000 nM	100 to 1000 nM	100 to 1000 nM	100 to 1000 nM	10 to 100 nM	10 to 100 nM				
